Experimental data taken from US10835532B2, “Muscarinic agonists as cognitive enhancers” (The University of Toledo, priority 2008, dated 2020).

What was measured:
M5 receptors = molecular target: T1, M5 receptors (Homo sapiens, UniProt P08912); test: PI metabolism in A9 L cells expressing M5 receptors; assay type: cell-based
T1 construct: expressed in transfected cells; host or cells: A9 L cells
T1 sequence (P08912 1-532): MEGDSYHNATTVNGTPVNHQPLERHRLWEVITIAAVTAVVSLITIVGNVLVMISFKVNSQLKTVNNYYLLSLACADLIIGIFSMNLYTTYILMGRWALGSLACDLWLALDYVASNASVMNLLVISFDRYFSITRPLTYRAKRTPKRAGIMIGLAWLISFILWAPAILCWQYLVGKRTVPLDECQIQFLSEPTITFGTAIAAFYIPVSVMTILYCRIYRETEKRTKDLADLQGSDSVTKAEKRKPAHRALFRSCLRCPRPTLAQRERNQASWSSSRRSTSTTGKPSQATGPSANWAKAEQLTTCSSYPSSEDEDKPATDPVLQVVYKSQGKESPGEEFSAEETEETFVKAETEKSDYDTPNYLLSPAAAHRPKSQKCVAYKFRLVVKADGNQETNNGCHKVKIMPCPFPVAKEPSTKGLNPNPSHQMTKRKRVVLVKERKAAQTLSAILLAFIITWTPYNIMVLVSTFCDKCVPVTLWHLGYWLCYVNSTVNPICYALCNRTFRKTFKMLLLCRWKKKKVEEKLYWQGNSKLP
Procedure: (§1) The observed functional selectivity of CDD-0102A is unique among compounds purported to be selective M1 agonists. […] The lack of selectivity likely contributes to the high incidence of adverse effects observed when the compounds are administered to humans. To assess selectivity for muscarinic receptors, the ability of CDD-0102A to activate responses was compared with the nonselective, full agonist carbachol at each muscarinic receptor subtype. In cultured cell lines expressing individual muscarinic receptor subtypes, phosphoinositide (PI) metabolism studies assessed activity at M1, M3 and M5 receptors, while measures of cAMP levels examined M2 and M4 receptor activity. […] CDD-0102 was not active when M5 receptors were expressed at low levels in A9 L cells. […] Thus, CDD-0102 is a functionally-selective M1 agonist with weaker activity at M5 receptors, very weak activity at M3 receptor and no activity at M2 or M4 receptors.

M2 receptors = molecular target: T2, M2 receptors (Homo sapiens, UniProt P08172); test: Inhibition of adenylyl cyclase activity (cAMP levels) in A9 L cells expressing M2 receptors; assay type: cell-based
T2 construct: expressed in transfected cells; host or cells: A9 L cells
T2 sequence (P08172 1-466): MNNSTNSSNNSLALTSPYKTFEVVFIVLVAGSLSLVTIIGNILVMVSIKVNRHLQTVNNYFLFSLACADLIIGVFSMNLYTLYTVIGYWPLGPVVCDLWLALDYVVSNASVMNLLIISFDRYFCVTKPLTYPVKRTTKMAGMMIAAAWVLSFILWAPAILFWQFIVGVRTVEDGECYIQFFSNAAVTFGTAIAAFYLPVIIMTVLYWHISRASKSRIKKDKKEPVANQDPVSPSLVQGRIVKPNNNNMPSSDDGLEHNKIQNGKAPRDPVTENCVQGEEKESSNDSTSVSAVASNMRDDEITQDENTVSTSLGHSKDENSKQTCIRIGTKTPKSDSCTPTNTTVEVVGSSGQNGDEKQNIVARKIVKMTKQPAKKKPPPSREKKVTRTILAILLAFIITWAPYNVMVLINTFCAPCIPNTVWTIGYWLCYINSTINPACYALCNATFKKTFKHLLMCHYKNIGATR
Procedure: as §1

[1] = Messer et al. 2002; cited from earlier work
M1 receptors = molecular target: T3, M1 receptors (Homo sapiens, UniProt P11229); test: PI metabolism in A9 L cells expressing M1 receptors; assay type: cell-based; conditions: M1 receptors expressed in A9 L cells
T3 construct: expressed in transfected cells; host or cells: A9 L cells
T3 sequence (P11229 1-460): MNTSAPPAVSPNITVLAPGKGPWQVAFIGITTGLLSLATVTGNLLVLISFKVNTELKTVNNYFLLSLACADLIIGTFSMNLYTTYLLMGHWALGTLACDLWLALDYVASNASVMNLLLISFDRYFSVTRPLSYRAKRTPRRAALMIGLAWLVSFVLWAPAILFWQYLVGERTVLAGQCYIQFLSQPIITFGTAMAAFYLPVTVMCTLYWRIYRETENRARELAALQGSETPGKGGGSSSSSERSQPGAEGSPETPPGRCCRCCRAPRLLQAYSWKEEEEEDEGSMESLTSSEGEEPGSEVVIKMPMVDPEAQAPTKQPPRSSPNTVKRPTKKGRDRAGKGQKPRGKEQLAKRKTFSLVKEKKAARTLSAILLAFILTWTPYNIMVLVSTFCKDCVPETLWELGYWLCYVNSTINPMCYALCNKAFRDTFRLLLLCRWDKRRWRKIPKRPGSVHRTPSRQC
Procedure: as §1

M3 receptors = molecular target: T4, M3 receptors (Homo sapiens, UniProt P20309); test: PI metabolism in A9 L cells expressing M3 receptors; assay type: cell-based; conditions: M3 receptors expressed in A9 L cells
T4 construct: expressed in transfected cells; host or cells: A9 L cells
Procedure: as §1

[2] = tested on: rats with impaired cholinergic function; conditions: Messer et al. 2002; cited from earlier work
M4 receptors = molecular target: T5, M4 receptors (Homo sapiens, UniProt P08173); test: Inhibition of adenylyl cyclase activity (cAMP levels) in CHO cells expressing M4 receptors; assay type: cell-based
T5 construct: expressed in transfected cells; host or cells: CHO cells
T5 sequence (P08173 1-479): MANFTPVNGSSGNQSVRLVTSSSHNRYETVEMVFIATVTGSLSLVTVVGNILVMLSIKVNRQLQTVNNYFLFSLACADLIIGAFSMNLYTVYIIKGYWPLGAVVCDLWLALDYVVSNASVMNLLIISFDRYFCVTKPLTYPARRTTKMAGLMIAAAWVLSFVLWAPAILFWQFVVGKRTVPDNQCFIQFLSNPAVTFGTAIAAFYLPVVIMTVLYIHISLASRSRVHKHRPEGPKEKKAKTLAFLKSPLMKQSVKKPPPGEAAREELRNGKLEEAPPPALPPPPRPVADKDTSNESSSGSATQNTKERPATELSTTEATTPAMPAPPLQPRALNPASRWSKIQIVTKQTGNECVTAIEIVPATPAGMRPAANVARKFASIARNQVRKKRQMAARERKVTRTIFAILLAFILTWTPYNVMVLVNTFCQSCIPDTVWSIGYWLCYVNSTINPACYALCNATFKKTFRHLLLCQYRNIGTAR
Procedure: as §1

[3] = read-out: EC50, stimulation of PI metabolism

T4 sequence (P20309 whole entry): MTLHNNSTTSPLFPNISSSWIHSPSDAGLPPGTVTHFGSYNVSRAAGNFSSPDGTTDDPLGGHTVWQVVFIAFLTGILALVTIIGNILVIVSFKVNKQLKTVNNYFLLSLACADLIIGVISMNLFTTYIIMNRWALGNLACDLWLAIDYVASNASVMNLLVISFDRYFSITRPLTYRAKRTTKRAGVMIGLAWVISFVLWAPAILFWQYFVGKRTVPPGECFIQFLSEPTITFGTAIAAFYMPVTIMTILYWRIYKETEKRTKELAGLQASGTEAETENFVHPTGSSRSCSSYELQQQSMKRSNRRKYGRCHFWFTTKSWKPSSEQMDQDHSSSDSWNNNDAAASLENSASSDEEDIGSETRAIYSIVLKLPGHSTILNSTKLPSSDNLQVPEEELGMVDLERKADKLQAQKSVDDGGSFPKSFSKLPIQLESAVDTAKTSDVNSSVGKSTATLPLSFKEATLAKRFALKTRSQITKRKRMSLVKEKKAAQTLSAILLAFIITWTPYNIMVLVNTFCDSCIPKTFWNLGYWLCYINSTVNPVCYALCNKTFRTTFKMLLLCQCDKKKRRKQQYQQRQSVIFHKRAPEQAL

Activity in PI metabolism (M5 receptors; M5 receptors expressed at low levels in A9 L cells): not active
EC50 (M5 receptors; higher levels of M5 receptor expression in A9 L cells, read-out: EC50, stimulation of PI metabolism): 7.5 µM
PI metabolism, % of the carbachol response (M5 receptors; higher levels of M5 receptor expression in A9 L cells, relative to carbachol): 28%
Inhibition of adenylyl cyclase activity (M2 receptors): inactive
EC50 (M1 receptors; [3]): 13 µM
PI metabolism, % of the carbachol response (M1 receptors; relative to full agonist carbachol): 46%
EC50 (M3 receptors; [3]): 10 µM
PI metabolism, % of the carbachol response (M3 receptors; relative to carbachol): 6.6%
Inhibition of adenylyl cyclase activity (M4 receptors): inactive
SMILES: CCc1noc(C2CN=CNC2)n1 (centres unmarked) [CDD-0102, 5-(3-ethyl-1,2,4-oxadiazol-5-yl)-1,4,5,6-tetrahydropyrimidine]
Side effect profile in vivo [1]: low side effect profile
Memory deficits [2]: reverses memory deficits
